Assay results reported in PubChem BioAssay (NCI).
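Tested at 5 concentrations; 48 h exposure; 96-well plates; endpoints linearly interpolated, else capped at highest concentration. Abbreviation: GI50, concentration required for 50% inhibition of growth. At the TGI there is no net growth.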

Experiments:
Assay in all cases: NCI tumour cell line growth inhibition, 48 h
[1] = test system: MDA-MB-231 breast
[2] = test system: DU-145 prostate
[3] = test system: HT29 colon
[4] = test system: SF-539 CNS
[5] = test system: RXF 393 renal
[6] = test system: SK-MEL-28 melanoma
[7] = test system: SK-MEL-2 melanoma
[8] = test system: SN12C renal
[9] = test system: HL-60(TB) leukemia
[10] = test system: CCRF-CEM leukemia
[11] = test system: SK-MEL-5 melanoma
[12] = test system: HOP-62 NSCLC
[13] = test system: EKVX NSCLC
[14] = test system: M14 melanoma
[15] = test system: SNB-75 CNS
[16] = test system: COLO 205 colon
[17] = test system: RPMI-8226 leukemia
[18] = test system: OVCAR-5 ovarian
[19] = test system: NCI-H23 lung
[20] = test system: HCT-15 colon
[21] = test system: BT-549 breast
[22] = test system: A549 NSCLC
[23] = test system: SF-295 CNS
[24] = test system: NCI-H460 lung
[25] = test system: MALME-3M melanoma
[26] = test system: SR leukemia
[27] = test system: MOLT-4 leukemia
[28] = test system: LOX IMVI melanoma
[29] = test system: TK-10 renal
[30] = test system: MDA-MB-468 breast
[31] = test system: U251 CNS
[32] = test system: IGROV1 ovarian
[33] = test system: K-562 leukemia
[34] = test system: PC-3 prostate
[35] = test system: CAKI-1 renal
[36] = test system: T-47D breast
[37] = test system: MDA-MB-435
[38] = test system: OVCAR-4 ovarian
[39] = test system: 786-0 renal
[40] = test system: HCT-116 colon
[41] = test system: KM12 colon
[42] = test system: OVCAR-8 ovarian
[43] = test system: SF-268 CNS
[44] = test system: MCF7 breast
[45] = test system: OVCAR-3 ovarian
[46] = test system: HS 578T breast
[47] = test system: A498 renal
[48] = test system: NCI-H522 lung
[49] = test system: HCC-2998 colon
[50] = test system: HOP-92 NSCLC
[51] = test system: ACHN renal
[52] = test system: NCI-H226 lung
[53] = test system: UO-31 renal
[54] = test system: SNB-19 CNS

**Q.** Which results are given for `COC[C@@H](CC(C)C)N=C1NC(=O)/C(=C/c2ccc3ncoc3c2)N1`?
**A.** GI50 [1]: 5.64 µM; TGI [1]: > 100 µM; GI50 [2]: 3.74 µM; TGI [2]: > 100 µM; GI50 [3]: 4.3 µM; TGI [3]: 24.1 µM; GI50 [4]: 0.618 µM; TGI [4]: 7.11 µM; GI50 [5]: 2.72 µM; TGI [5]: 9.18 µM; GI50 [6]: 2.66 µM; TGI [6]: 8.79 µM; GI50 [7]: 1.93 µM; TGI [7]: 4.36 µM; GI50 [8]: 3.12 µM; TGI [8]: > 100 µM; GI50 [9]: 3.48 µM; TGI [9]: 23.4 µM; GI50 [10]: 2.6 µM; TGI [10]: 9.93 µM; GI50 [11]: 2.44 µM; TGI [11]: 12 µM; GI50 [12]: 2.89 µM; TGI [12]: > 100 µM; GI50 [13]: 3.55 µM; TGI [13]: > 100 µM; GI50 [14]: 5.64 µM; TGI [14]: > 100 µM; GI50 [15]: 0.0317 µM; TGI [15]: 4.01 µM; GI50 [16]: 2.23 µM; TGI [16]: 8.06 µM; GI50 [17]: 3.19 µM; TGI [17]: > 100 µM; GI50 [18]: 3.52 µM; TGI [18]: > 100 µM; GI50 [19]: 2.21 µM; TGI [19]: 8.75 µM; GI50 [20]: 2.43 µM; TGI [20]: > 100 µM; GI50 [21]: 2.44 µM; TGI [21]: 11.4 µM; GI50 [22]: 2.65 µM; TGI [22]: > 100 µM; GI50 [23]: 3.65 µM; TGI [23]: > 100 µM; GI50 [24]: 2.67 µM; TGI [24]: > 100 µM; GI50 [25]: 3.06 µM; TGI [25]: 50.5 µM; GI50 [26]: 2.87 µM; TGI [26]: > 100 µM; GI50 [27]: 4.27 µM; TGI [27]: > 100 µM; GI50 [28]: 2.87 µM; TGI [28]: > 100 µM; GI50 [29]: 3.24 µM; TGI [29]: > 100 µM; GI50 [30]: 1.35 µM; TGI [30]: 6.99 µM; GI50 [31]: 2.72 µM; TGI [31]: > 100 µM; GI50 [32]: 2.73 µM; TGI [32]: > 100 µM; GI50 [33]: 2.92 µM; TGI [33]: > 100 µM; GI50 [34]: 5.72 µM; TGI [34]: > 100 µM; GI50 [35]: 2.59 µM; TGI [35]: > 100 µM; GI50 [36]: 2.2 µM; TGI [36]: 9.96 µM; GI50 [37]: 4.33 µM; TGI [37]: > 100 µM; GI50 [38]: 10.2 µM; TGI [38]: > 100 µM; GI50 [39]: 5.31 µM; TGI [39]: > 100 µM; GI50 [40]: 2.13 µM; TGI [40]: > 100 µM; GI50 [41]: 3.39 µM; TGI [41]: > 100 µM; GI50 [42]: 2.88 µM; TGI [42]: > 100 µM; GI50 [43]: 3.65 µM; TGI [43]: 57.3 µM; GI50 [44]: 2.69 µM; TGI [44]: > 100 µM; GI50 [45]: 1.08 µM; TGI [45]: 4.69 µM; GI50 [46]: 2.31 µM; TGI [46]: 9.22 µM; GI50 [47]: 1.34 µM; TGI [47]: 6.88 µM; GI50 [48]: 2.13 µM; TGI [48]: 8.52 µM; GI50 [49]: 7.43 µM; TGI [49]: > 100 µM; GI50 [50]: 2.58 µM; TGI [50]: 9.48 µM; GI50 [51]: 2.89 µM; TGI [51]: > 100 µM; GI50 [52]: 2.18 µM; TGI [52]: > 100 µM; GI50 [53]: 2.67 µM; TGI [53]: 35.3 µM; GI50 [54]: 1.99 µM; TGI [54]: > 100 µM
